Assay results published in US20180251431A1 (VERTEX PHARMACEUTICALS INCORPORATED, priority 2016, published 2018).
pIC50: −log10 of the molar value.

These molecules were tested on HEK293 cells (assay: HEK293 VLCFA-LPC IC50 determination (13C-labeled C26:0 LPC by UHPLC/MS)). Details: Homo sapiens, HEK293, 48 h, average of one or more replicates; 13C-labeled C26:0 LPC, 48 hours; read-out: Average HEK293 IC50.
Type: cell-based, human
In short: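 Suspension HEK293 cells (final 0.5 million/mL after mixing with equal volume) incubated 48 hours with compound plus 13C-acetate (1.0 mg/mL in added media), shaking at 37° C. Lipids extracted with hexane/isopropanol or methanol, C13:0 LPC standard. UHPLC/MS of 13C-labeled C26:0 LPC (638.500/104.100 m/z); IC50 by four-parameter fit.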

Row | Structure (SMILES) | pIC50
1 | Cc1nccc(-n2ccc(NC(=O)C3(c4ccccc4F)CC3)n2)n1 [Compound 331, 1-(2-fluorophenyl)-N-[1-(2-methylpyrimidin-4-yl)pyrazol-3-yl]cyclopropanecarboxamide] | < 5.30
2 | O=C(Nc1ccn(-c2ccnc(F)c2)n1)C1(c2ccccc2)CC1(F)F (single isomer, unassigned) [Compound 368] | 7.49
3 | CC(C)(O)c1cc(-n2ccc(NC(=O)C3(c4ccccc4F)CC3)n2)ccn1 [Compound 334, 1-(2-fluorophenyl)-N-[1-[2-(1-hydroxy-1-methyl-ethyl)-4-pyridyl]pyrazol-3-yl]cyclopropanecarboxamide] | < 5.30
4 | O=C(Nc1ccn(-c2ccncc2)n1)C1(c2ccccc2)CC1(F)F (single isomer, unassigned) [Compound 433] | 6.49
5 | Cc1ncnc(C)c1-n1ccc(NC(=O)C2(c3ccccc3F)CC2)n1 [Compound 339, N-[1-(4,6-dimethylpyrimidin-5-yl)pyrazol-3-yl]-1-(2-fluorophenyl)cyclopropanecarboxamide] | < 5.30
6 | N#Cc1cnccc1-n1ccc(NC(=O)C2(c3ccccc3F)CC2)n1 [Compound 335, N-[1-(3-cyano-4-pyridyl)pyrazol-3-yl]-1-(2-fluorophenyl)cyclopropanecarboxamide] | < 5.30
7 | Cc1ncncc1-n1ccc(NC(=O)C2(c3ccccc3F)CC2)n1 [Compound 341, 1-(2-fluorophenyl)-N-[1-(4-methylpyrimidin-5-yl)pyrazol-3-yl]cyclopropanecarboxamide] | 6.15

Same assay, conditions: Homo sapiens, HEK293, HEK293 cells; average of one or more replicates; read-out: Average HEK293 IC50

Row | Structure (SMILES) | pIC50
8 | O=C(Nc1ccn(-c2ccnc(F)c2)n1)C1(c2ncccc2F)CC1 [Compound 277, 1-(3-f1uoro-2-pyridyl)-N-[1-(2-fluoro-4-pyridyl)pyrazol-3-yl]cyclopropanecarboxamide] | 6.92
9 | O=C(Cc1cccc(F)c1)Nc1ccn(-c2ccccc2)n1 [Compound 49, 2-(3-fluorophenyl)-N-(1-phenylpyrazol-3-yl)acetamide] | 5.72
10 | O=C(Cc1ccccc1F)Nc1ccn(-c2ccc(F)c(F)c2)n1 [Compound 191, N-[1-(3,4-difluorophenyl)pyrazol-3-yl]-2-(2-fluorophenyl)acetamide] | 6.62
11 | O=C(Nc1ccn(-c2cc(F)ccc2F)n1)C1(c2ccccc2F)CC1 [Compound 161, N-[1-(2,5-difluorophenyl)pyrazol-3-yl]-1-(2-fluorophenyl)cyclopropanecarboxamide] | 6.01
12 | O=C(Cn1cccn1)Nc1ccn(-c2ccccc2)n1 [Compound 289, N-(1-phenylpyrazol-3-yl)-2-pyrazol-1-yl-acetamide] | < 5.30
13 | O=C(Nc1ccn(-c2ccncc2)n1)C1(c2ccc(F)cn2)CC1 [Compound 489, 1-(5-fluoro-2-pyridyl)-N-[1-(4-pyridyl)pyrazol-3-yl]cyclopropanecarboxamide] | 5.82
14 | O=C(Nc1ccn(-c2ccccc2)n1)C(c1ccccc1)C1CC1 (stereo not drawn) [Compound 179, 2-cyclopropyl-2-phenyl-N-(1-phenylpyrazol-3-yl)acetamide] | 5.80
15 | CC1(C)CC1(C(=O)Nc1ccn(-c2ccncc2)n1)c1ncccc1F (stereo not drawn) [Compound 518, 1-(3-fluoro-2-pyridyl)-2,2-dimethyl-N-[1-(4-pyridyl)pyrazol-3-yl]cyclopropanecarboxamide] | 5.92
16 | O=C(Nc1ccn(-c2ccc(C(F)(F)F)cc2)n1)C1(c2ncccc2F)CC1 [Compound 457, 1-(3-fluoro-2-pyridyl)-N-[1-[4-(trifluoromethyl)phenyl]pyrazol-3-yl]cyclopropanecarboxamide] | < 5.30
17 | O=C(Nc1ccn(-c2ccnc(F)c2)n1)C1(c2cc(Cl)ccc2F)CC1 [Compound 264, 1-(5-chloro-2-fluoro-phenyl)-N-[1-(2-fluoro-4-pyridyl)pyrazol-3-yl]cyclopropanecarboxamide] | 6.72
18 | CC1(C)CC1(C(=O)Nc1ccn(-c2cc(F)cc(F)c2)n1)c1ncccc1F (stereo not drawn) [Compound 516, N-[1-(3,5-difluorophenyl)pyrazol-3-yl]-1-(3-fluoro-2-pyridyl)-2,2-dimethyl-cyclopropanecarboxamide] | 5.89
19 | O=C(Nc1ccn(-c2ccc(F)c(F)c2)n1)C1(c2ncccc2F)CC12CC2 (stereo not drawn) [Compound 522, N-[1-(3,4-difluorophenyl)pyrazol-3-yl]-2-(3-fluoro-2-pyridyl)spiro[2.2]pentane-2-carboxamide] | 6.09
20 | O=C(Cc1ccc(F)c(F)c1F)Nc1ccn(-c2ccccc2)n1 [Compound 74, N-(1-phenylpyrazol-3-yl)-2-(2,3,4-trifluorophenyl)acetamide] | < 5.30
21 | O=C(Cc1ccc(F)cc1)Nc1ccn(-c2ccncc2)n1 [Compound 102, 2-(4-fluorophenyl)-N-[1-(4-pyridyl)pyrazol-3-y]+acetamide] | 5.44
22 | O=C(Cc1ccccc1F)Nc1ccn(-c2ccncc2F)n1 [Compound 139, 2-(2-fluorophenyl)-N-[1-(3-fluoro-4-pyridyl)pyrazol-3-yl]acetamide] | 6.40
23 | COc1cc(F)ccc1-n1ccc(NC(=O)C2(c3ccccc3F)CC2)n1 [Compound 429, N-[1-(4-fluoro-2-methoxy-phenyl)pyrazol-3-yl]-1-(2-fluorophenyl)cyclopropanecarboxamide] | < 5.30
24 | O=C(Cc1ccccc1)Nc1ccn(-c2ccnc(C(F)(F)F)c2)n1 [Compound 123, 2-phenyl-N-[1-[2-(trifluoromethyl)-4-pyridyl]pyrazol-3-yl]acetamide] | 5.82
25 | O=C(Cc1ccccc1)Nc1ccn(-c2ncccc2F)n1 [Compound 93, N-[1-(3-fluoro-2-pyridyl)pyrazol-3-yl]-2-phenyl-acetamide] | < 5.00

Row | Structure (SMILES) | pIC50
26 | O=C(Nc1ccn(-c2ccc(Cl)c(F)c2)n1)C1(c2ccccc2F)CC1 [Compound 194, N-[1-(4-chloro-3-fluoro-phenyl)pyrazol-3-yl]-1-(2-fluorophenyl)cyclopropanecarboxamide] | < 5.30
27 | O=C(Cc1ccccc1F)Nc1ccn(-c2ccccc2F)n1 [Compound 187, 2-(2-fluorophenyl)-N-[1-(2-fluorophenyl)pyrazol-3-yl]acetamide] | 6.28
28 | O=C(Nc1ccn(-c2ccncn2)n1)C1(c2ncccc2F)CC1 [Compound 279, 1-(3-fluoro-2-pyridyl)-N-(1-pyrimidin-4-ylpyrazol-3-yl)cyclopropanecarboxamide] | 6.28
29 | O=C(Cc1ncccn1)Nc1ccn(-c2ccnc(F)c2)n1 [Compound 221, N-[1-(2-fluoro-4-pyridyl)pyrazol-3-yl]-2-pyrimidin-2-yl-acetamide] | < 5.30
30 | O=C(Cc1ccccc1)Nc1ccn(-c2cnccn2)n1 [Compound 218, 2-phenyl-N-(1-pyrazin-2-ylpyrazol-3-yl)acetamide] | < 5.70
31 | O=C(Cn1nccn1)Nc1ccn(-c2ccccc2)n1 [Compound 298, N-(1-phenylpyrazol-3-yl)-2-(triazol-2-yl)acetamide] | < 5.70
32 | O=C(Cc1ccccc1F)Nc1ccn(-c2ccccc2)n1 [Compound 1, 2-(2-fluorophenyl)-N-(1-phenylpyrazol-3-yl)acetamide] | 7.17
33 | O=C(Nc1ccn(-c2cncc(F)c2)n1)C1(c2cccc(OC(F)(F)F)c2)CC1 [Compound 465] | 7.62
34 | COc1ncc(-n2ccc(NC(=O)C3(c4ccccc4F)CC3)n2)s1 [Compound 408, 1-(2-fluorophenyl)-N-[1-(2-methoxythiazol-5-yl)pyrazol-3-yl]cyclopropanecarboxamide] | 6.00
35 | COc1ccc(CC(=O)Nc2ccn(-c3ccccc3)n2)cc1F [Compound 63, 2-(3-fluoro-4-methoxy-phenyl)-N-(1-phenylpyrazol-3-yl)acetamide] | < 5.30
36 | O=C(Nc1ccn(-c2ccncc2F)n1)C1(c2ccccc2)CC1 [Compound 138, N-(1-(3-fluoropyridin-4-yl)-1H-pyrazol-3-yl)-1-phenylcyclopropane-1-carboxamide] | 7.26
37 | CCCC(C(=O)Nc1ccn(-c2ccccc2)n1)c1ccccc1 (stereo not drawn) [Compound 176, 2-phenyl-N-(1-phenylpyrazol-3-yl)pentanamide] | 6.06
38 | O=C(Nc1ccn(-c2ccnc(F)c2)n1)C1(c2c(F)cccc2F)CC1 [Compound 266, 1-(2,6-difluorophenyl)-N-[1-(2-fluoro-4-pyridyl)pyrazol-3-yl]cyclopropanecarboxamide] | 7.77
39 | O=C(Cc1ccc(Cl)c(Cl)c1)Nc1ccn(-c2ccccc2)n1 [Compound 68, 2-(3,4-dichlorophenyl)-N-(1-phenylpyrazol-3-yl)acetamide] | < 5.30
40 | O=C(Nc1ccn(-c2ccnc(F)c2)n1)C1(c2ccccc2)CC(F)(F)C1 [Compound 172, 3,3-difluoro-N-[1-(2-fluoro-4-pyridyl)pyrazol-3-yl]-1-phenyl-cyclobutanecarboxamide] | 6.42
41 | CC1(C)CC1(C(=O)Nc1ccn(-c2cncc(F)c2)n1)c1ncccc1F (stereo not drawn) [Compound 511, 1-(3-fluoro-2-pyridyl)-N-[1-(5-fluoro-3-pyridyl)pyrazol-3-yl]-2,2-dimethyl-cyclopropanecarboxamide] | 6.51
42 | O=C(Nc1ccn(-c2cncc(Cl)c2)n1)C1(c2ncccc2F)CC12CC2 (stereo not drawn) [Compound 520, N-[1-(5-chloro-3-pyridyl)pyrazol-3-yl]-2-(3-fluoro-2-pyridyl)spiro[2.2]pentane-2-carboxamide] | 5.80
43 | O=C(Nc1ccn(-c2cccnc2)n1)C1(c2ccccc2)CC1 [Compound 234, 1-phenyl-N-[1-(3-pyridyl)pyrazol-3-yl]cyclopropanecarboxamide] | 7.54

Same assay, conditions: average of one or more replicates; 13C-labeled C26:0 LPC, 48 hours; read-out: Average HEK293 IC50

Row | Structure (SMILES) | pIC50
44 | O=C(Nc1ccn(-c2cccc(Cl)c2)n1)C1(c2ccccc2)CC1(F)F (single isomer, unassigned) [Compound 438] | 6.27
45 | O=C(Nc1ccn(-c2cncc(F)c2)n1)C1(c2ccccc2)CC1(F)F (single isomer, unassigned) [Compound 436] | 6.74
